We go through 16 compounds from PubChem BioAssay (NCI).

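Five concentrations, 48 hours, 96-well plates. GI50 = concentration required for 50% inhibition of growth. TGI: concentration producing complete growth inhibition.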 Where only a bound is given, the exact number is not on record here.

Among the test systems are CAKI-1 renal; KM12 colon; MOLT-4 leukemia; OVCAR-4 ovarian; SF-539 CNS; SK-MEL-5 melanoma; SNB-19 CNS; UO-31 renal.
Experiment in all cases: inhibition of tumour cell growth, NCI panel, 48 h

Consider `C[S+](C)CCOC(=O)C(=[N+]=[N-])c1ccc([N+](=O)[O-])cc1`, for which the TGI in the assay on CAKI-1 renal, with KM12 colon, with MOLT-4 leukemia, in the assay on OVCAR-4 ovarian, in the assay with SF-539 CNS and in the assay on SK-MEL-5 melanoma was over 100 µM each time. The TGI in the assay on SNB-19 CNS and in the assay with UO-31 renal was over 100 µM each time.
Regarding `N#Cc1c(NN)nc(NN)c(C#N)c1-c1ccccc1`, the TGI in the assay on CAKI-1 renal, in the assay on KM12 colon, in the assay with MOLT-4 leukemia, in the assay with OVCAR-4 ovarian, with SF-539 CNS and in the assay with SK-MEL-5 melanoma was over 100 µM each time. For the same compound, the TGI with SNB-19 CNS and in the assay on UO-31 renal was over 100 µM throughout.
For `Cc1cc2nc(CCC(=O)O)c(=O)[nH]c2cc1C`, the TGI in the assay on CAKI-1 renal, in the assay with KM12 colon, with MOLT-4 leukemia, with OVCAR-4 ovarian, with SF-539 CNS and with SK-MEL-5 melanoma was over 100 µM throughout. The TGI in the assay on SNB-19 CNS and with UO-31 renal was over 100 µM throughout.
Consider `CCCCCC/C=C1\CCC(CN2CCCC2)C1=O` (stereo unspecified), for which the TGI with CAKI-1 renal is over 53.5 µM; in the assay on KM12 colon, 13.3 µM; in the assay with MOLT-4 leukemia, over 87 µM; in the assay with OVCAR-4 ovarian, 49.1 µM; with SF-539 CNS, 34.1 µM; with SK-MEL-5 melanoma, 32.8 µM. Further, the TGI is over 52.9 µM in the assay with SNB-19 CNS and 33 µM in the assay with UO-31 renal.
For the compound `Oc1ccccc1C=NCc1ccco1`, the TGI in the assay on KM12 colon, in the assay on MOLT-4 leukemia, in the assay on OVCAR-4 ovarian, in the assay on SF-539 CNS, in the assay on SNB-19 CNS and with UO-31 renal was over 100 µM throughout.
For the compound `Clc1ccc2c(c1)C1C(CO2)C(c2ccccc2)=NN1c1ccccc1` (stereo unspecified), the TGI in the assay with KM12 colon was over 100 µM; in the assay with MOLT-4 leukemia, 62.6 µM; with SNB-19 CNS, over 100 µM; in the assay on UO-31 renal it was 53.9 µM.
In the case of `O=C(CC1(O)C(=O)Nc2c(Cl)ccc(Cl)c21)c1ccc2ccccc2c1` (stereo unspecified), the TGI in the assay with CAKI-1 renal stood at 16.5 µM; with KM12 colon, 17.8 µM; in the assay on MOLT-4 leukemia, 38.9 µM; with OVCAR-4 ovarian, 5.92 µM; in the assay with SF-539 CNS, 35.5 µM; in the assay with SK-MEL-5 melanoma it was 17.7 µM. Besides, the TGI is 53 µM in the assay with SNB-19 CNS and 34.9 µM in the assay with UO-31 renal.
For `CC(=O)OC1COC(Nc2ccc(C(C)=O)cc2)C(OC(C)=O)C1OC(C)=O` (stereo unspecified), the TGI with CAKI-1 renal, in the assay with KM12 colon, with MOLT-4 leukemia, in the assay on OVCAR-4 ovarian, in the assay with SF-539 CNS and with SK-MEL-5 melanoma was over 100 µM in each case. Besides, the TGI in the assay on SNB-19 CNS and with UO-31 renal was over 100 µM each time.
`CCC/C(=N/NC(=O)C(N)=O)C(CC)C(=O)CCC(=O)N(Cc1ccccc1)Cc1ccccc1` (stereo unspecified): the TGI in the assay with CAKI-1 renal, with KM12 colon, in the assay with MOLT-4 leukemia, with SF-539 CNS, with SK-MEL-5 melanoma and in the assay on SNB-19 CNS was over 100 µM in each case. Besides, the TGI with UO-31 renal was over 100 µM.
For the compound `CC(=O)[CH-]C(=O)c1ccccc1.CC(=O)[CH-]C(=O)c1ccccc1.[Eu+3].[OH-].[OH3+]`, the GI50 with CAKI-1 renal, in the assay with MOLT-4 leukemia, in the assay on OVCAR-4 ovarian, in the assay with SF-539 CNS, in the assay with SK-MEL-5 melanoma and in the assay with SNB-19 CNS was over 100 µM throughout. Moreover, the TGI with CAKI-1 renal, in the assay on MOLT-4 leukemia, with OVCAR-4 ovarian, in the assay with SF-539 CNS, with SK-MEL-5 melanoma and in the assay on SNB-19 CNS was over 100 µM each time.
Take `CC(=O)[CH-]C(=O)c1ccccc1.CC(=O)[CH-]C(=O)c1ccccc1.CC1(C)C2CCC1(C)C([O-])C2.CC1(C)C2CCC1(C)C([O-])C2.[Ti+4]`: the GI50 is 51.4 µM in the assay on CAKI-1 renal; 34.8 µM with KM12 colon; 34.8 µM in the assay with MOLT-4 leukemia; 97.3 µM in the assay with OVCAR-4 ovarian; 17.8 µM in the assay on SF-539 CNS; 21.9 µM in the assay on SK-MEL-5 melanoma. The GI50 in the assay on SNB-19 CNS was 25.8 µM; in the assay on UO-31 renal, 27.8 µM. The TGI was over 100 µM with CAKI-1 renal; over 100 µM in the assay with KM12 colon; over 100 µM in the assay with MOLT-4 leukemia; over 100 µM in the assay on OVCAR-4 ovarian; 45.9 µM in the assay on SF-539 CNS; 39.1 µM in the assay on SK-MEL-5 melanoma. The TGI worked out at 97.7 µM in the assay on SNB-19 CNS and 93.8 µM with UO-31 renal.
Take `CCC1(c2c(F)c(F)c(N)c(F)c2F)CCC(=O)NC1=O` (stereo unspecified): the TGI with CAKI-1 renal, in the assay with KM12 colon, in the assay with MOLT-4 leukemia, with OVCAR-4 ovarian, in the assay with SF-539 CNS and with SK-MEL-5 melanoma was over 100 µM in each case. For the same compound, the TGI with SNB-19 CNS and in the assay on UO-31 renal was over 100 µM in each case.
As for `O=C1NC(=O)C2C(=O)NC(=O)C1C2(c1ccccc1)c1cc[nH]c1` (stereo unspecified), the TGI with CAKI-1 renal, with KM12 colon, in the assay on MOLT-4 leukemia, in the assay with OVCAR-4 ovarian, in the assay on SF-539 CNS and in the assay on SK-MEL-5 melanoma was over 100 µM in each case. In addition, the TGI with SNB-19 CNS and with UO-31 renal was over 100 µM in each case.
Consider `Oc1cc(O)c2c(-c3c(O)c(-c4ccc(O)c(O)c4)[o+]c4cc(O)cc(O)c34)c(O)c(-c3ccc(O)c(O)c3)[o+]c2c1`, for which the TGI with CAKI-1 renal was 95.6 µM; with KM12 colon, over 100 µM; in the assay on MOLT-4 leukemia, over 100 µM; in the assay with OVCAR-4 ovarian, over 100 µM; in the assay with SF-539 CNS, 50.3 µM; in the assay with SK-MEL-5 melanoma, over 100 µM. In addition, the TGI in the assay with SNB-19 CNS is over 100 µM; in the assay on UO-31 renal, 78.3 µM.
As for `O=C(CO)CC(=O)C(=O)Nc1ccccc1`, the TGI with KM12 colon, with MOLT-4 leukemia, with OVCAR-4 ovarian, in the assay with SF-539 CNS, in the assay with SK-MEL-5 melanoma and in the assay on SNB-19 CNS was over 100 µM each time. This compound had a TGI with UO-31 renal of over 100 µM.
As for `COC(=O)C(=O)OC1(C(C)=O)CC2(c3ccccc3)OC1(c1ccccc1)c1ccccc12` (stereo unspecified), the TGI is 39.9 µM in the assay with CAKI-1 renal; over 100 µM in the assay with MOLT-4 leukemia; 51.1 µM in the assay with OVCAR-4 ovarian; 26.7 µM in the assay with SF-539 CNS; 28.8 µM with SK-MEL-5 melanoma; 47.3 µM in the assay on SNB-19 CNS. Besides, in the assay on UO-31 renal, the TGI was found to be 29.9 µM.
